Data on 7 compounds can be found in ChEMBL document CHEMBL1201862, “PubChem BioAssay data set” (2004).

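Assay format: 96-well plates, 48-hour exposure. GI50 is the concentration that inhibits growth by half.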 Calls of active or inactive are those of the source. Cut-off read from the data, not from the text of the source: active = GI50 up to about 1.1 µM and inactive = higher.

Test systems include TK-10; Malme-3M; MDA-MB-435; A498; HCT-116; NCI/ADR-RES; SNB-19; NCI-H460; KM12; SF-539; CAKI-1; HL-60; OVCAR-8; U-251; NCI-H23; SR; K562; OVCAR-4; PC-3; A549.
Common to all, as to assay: growth of human tumour cells (NCI), 48 h

Regarding `N=C(N)NS(=O)(=O)c1ccc(NC(=O)c2ccc3nc4ccccc4c(Nc4ccc(S(N)(=O)=O)cc4)c3c2)cc1`, the GI50 with TK-10, in the assay with Malme-3M, with MDA-MB-435, in the assay on A498, with HCT-116 and in the assay on NCI/ADR-RES was > 100 µM (inactive) throughout. Also, the GI50 with SNB-19, in the assay with NCI-H460, in the assay with KM12, in the assay on SF-539, in the assay on CAKI-1 and in the assay with HL-60 was > 100 µM (inactive) each time. Besides, the GI50 with OVCAR-8, in the assay with U-251, with NCI-H23, in the assay on SR, in the assay with K562 and in the assay on OVCAR-4 was > 100 µM (inactive) in each case. The GI50 in the assay with PC-3 and with A549 was > 100 µM (inactive) each time.
In the case of `CC1(O)CC(=O)c2c(cc3ccc(-c4c5c(c(O)c6c(O)cccc46)C(=O)CC(C)(O)C5)c(O)c3c2O)C1` (stereo not given), the GI50 in the assay with TK-10 is 0.767 µM (active); with Malme-3M it was 0.248 µM (active); with MDA-MB-435, 0.279 µM (active); in the assay with A498, 0.465 µM (active); with HCT-116, 0.0647 µM (active); in the assay on NCI/ADR-RES, 0.441 µM (active). In addition, the GI50 was 0.18 µM (active) with SNB-19; 0.16 µM (active) in the assay on NCI-H460; 0.0278 µM (active) with KM12; 0.174 µM (active) with SF-539; 0.401 µM (active) in the assay on CAKI-1; 0.16 µM (active) in the assay with HL-60. In addition, the GI50 in the assay on OVCAR-8 is 0.332 µM (active); in the assay on U-251 it was 0.06 µM (active); in the assay with NCI-H23, 0.0574 µM (active); with SR it was 0.367 µM (active); with K562, 0.298 µM (active); in the assay with OVCAR-4, 0.27 µM (active). The GI50 in the assay on PC-3 is 0.0834 µM (active); in the assay on A549, 0.365 µM (active).
Take `Cc1cc(C)c2c(=O)cc(-c3ccccc3)[nH]c2c1`: the GI50 in the assay on TK-10 was 7.05 µM (inactive); in the assay with Malme-3M, 2.71 µM (inactive); with MDA-MB-435, 0.211 µM (active); in the assay on A498 it was 1.35 µM (inactive); in the assay with HCT-116, 0.889 µM (active); with NCI/ADR-RES, 1.61 µM (inactive). The GI50 in the assay on SNB-19 is 5.43 µM (inactive); in the assay on NCI-H460, 1.92 µM (inactive); with KM12, 0.548 µM (active); with SF-539, 2.31 µM (inactive); in the assay with CAKI-1, 3.29 µM (inactive); in the assay with HL-60, 0.479 µM (active). The GI50 in the assay on OVCAR-8 is 3.66 µM (inactive); in the assay on U-251, 3.25 µM (inactive); with NCI-H23 it was 2.66 µM (inactive); with SR, 2.01 µM (inactive); in the assay on K562 it was 0.57 µM (active); in the assay on OVCAR-4, 9.71 µM (inactive). The results for the GI50 in the assay with PC-3 and in the assay with A549 were 2.06 µM (inactive) and 1.84 µM (inactive), respectively.
On to `O=C1CCCCN1C(=O)c1ccc([N+](=O)[O-])cc1`, for which the GI50 in the assay on TK-10, with Malme-3M, in the assay on MDA-MB-435, with A498, with HCT-116 and in the assay on NCI/ADR-RES was > 100 µM (inactive) each time. The GI50 in the assay on SNB-19, in the assay on NCI-H460, in the assay with KM12, in the assay with SF-539, in the assay with CAKI-1 and with HL-60 was > 100 µM (inactive) throughout. Further, the GI50 in the assay on OVCAR-8, in the assay with U-251, in the assay with NCI-H23, in the assay with SR, with K562 and in the assay on OVCAR-4 was > 100 µM (inactive) throughout. Besides, the GI50 in the assay with PC-3 is 44.3 µM (inactive); with A549, > 100 µM (inactive).
For `O=S(=O)(O)c1cc(S(=O)(=O)O)c2c(/N=N/c3ccc(/N=N/c4ccccc4)cc3)c(O)ccc2c1`, the GI50 with TK-10 is > 100 µM (inactive); in the assay with Malme-3M, > 100 µM (inactive); with MDA-MB-435, > 100 µM (inactive); in the assay on A498, 52.1 µM (inactive); with HCT-116, > 100 µM (inactive); in the assay with NCI/ADR-RES it was > 100 µM (inactive). In addition, the GI50 in the assay with SNB-19, in the assay on NCI-H460, in the assay with KM12, in the assay on SF-539, in the assay on CAKI-1 and with HL-60 was > 100 µM (inactive) throughout. Further, the GI50 in the assay on OVCAR-8, with U-251, in the assay with NCI-H23, in the assay on SR, in the assay with K562 and with OVCAR-4 was > 100 µM (inactive) each time. The GI50 in the assay on PC-3 and in the assay on A549 was > 100 µM (inactive) throughout.
For the compound `CCCC(CCC)C(=O)O` [VALPROIC ACID], the GI50 with TK-10 was 8240 µM (inactive); with Malme-3M, 4400 µM (inactive); in the assay on MDA-MB-435, 10900 µM (inactive); in the assay with A498, 532 µM (inactive); with HCT-116 it was 9730 µM (inactive); with NCI/ADR-RES, 10900 µM (inactive). Also, the GI50 in the assay with SNB-19 is > 100 µM (inactive); in the assay on NCI-H460 it was 4310 µM (inactive); in the assay with KM12 it was 14300 µM (inactive); in the assay with SF-539, 15200 µM (inactive); in the assay with CAKI-1, 7480 µM (inactive); in the assay on HL-60, 10300 µM (inactive). For the same compound, the GI50 in the assay with OVCAR-8 is 3920 µM (inactive); in the assay on U-251, 8020 µM (inactive); with NCI-H23, > 100 µM (inactive); in the assay on SR it was 8510 µM (inactive); in the assay on K562, 6810 µM (inactive); with OVCAR-4 it was 3720 µM (inactive). Further, the GI50 in the assay on PC-3 is 16900 µM (inactive); in the assay with A549, 9060 µM (inactive).
For the compound `O=S(=O)(O)c1ccc(/N=N/c2c(O)ccc3ccccc23)cc1`, the GI50 in the assay on TK-10 is > 100 µM (inactive); in the assay on Malme-3M, 4.58 µM (inactive); in the assay with MDA-MB-435, > 100 µM (inactive); in the assay on A498, > 100 µM (inactive); in the assay with HCT-116, > 100 µM (inactive); in the assay on NCI/ADR-RES, > 100 µM (inactive). Further, the GI50 with SNB-19, in the assay on NCI-H460, with KM12, in the assay on SF-539, in the assay on CAKI-1 and with HL-60 was > 100 µM (inactive) each time. Also, the GI50 in the assay on OVCAR-8, in the assay on U-251, in the assay on NCI-H23, with SR, in the assay on K562 and with OVCAR-4 was > 100 µM (inactive) in each case. The GI50 in the assay on PC-3 and with A549 was > 100 µM (inactive) each time.
